Test systems include DU-145 prostate; MDA-MB-231 breast; MDA-N; NCI-H226 lung; RXF 393 renal; SF-295 CNS; SK-MEL-2 melanoma; SK-MEL-28 melanoma; SK-OV-3 ovarian; SNB-19 CNS.
What all share (experiment): DTP human tumour cell line panel, 48 h

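Tested at 5 concentrations; 48 h exposure; 96-well plates; endpoints linearly interpolated, else capped at highest concentration. At the TGI there is no net growth.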

Usually TGI stands for the concentration giving total growth inhibition. The low end stands for more potent growth arrest, the high end for less potent growth arrest.

Regarding `CCOC(=O)Cn1c(=O)c2cc(C)cc3c(Cl)nc4c(OC)c(OC)cc1c4c32`, the TGI in the assay with DU-145 prostate, in the assay with MDA-MB-231 breast, with MDA-N, in the assay on NCI-H226 lung, in the assay with RXF 393 renal and in the assay with SF-295 CNS was greater than 100 µM throughout. In addition, the TGI with SK-MEL-2 melanoma, with SK-MEL-28 melanoma, in the assay on SK-OV-3 ovarian and in the assay with SNB-19 CNS was greater than 100 µM throughout.
Turning to `CCNc1nc2ccccc2nc1NCC`, the TGI in the assay on DU-145 prostate, in the assay with MDA-MB-231 breast, with MDA-N, with NCI-H226 lung, with RXF 393 renal and with SF-295 CNS was greater than 100 µM in each case. Further, the TGI in the assay on SK-MEL-2 melanoma, in the assay with SK-MEL-28 melanoma, with SK-OV-3 ovarian and in the assay with SNB-19 CNS was greater than 100 µM each time.
Regarding `NC(=O)NC1=NCCC(=O)N1CCc1c[nH]c2ccccc12`, the TGI in the assay with DU-145 prostate is 52 µM; in the assay with MDA-MB-231 breast it was 29.4 µM; in the assay with MDA-N it was 60.1 µM; in the assay on NCI-H226 lung, 39.9 µM; in the assay with RXF 393 renal, 48.3 µM; in the assay on SF-295 CNS, greater than 100 µM. Moreover, the concentration for total growth inhibition (TGI) in the assay on SK-MEL-2 melanoma is 29.3 µM; with SK-MEL-28 melanoma it was 41.2 µM; in the assay with SK-OV-3 ovarian, greater than 100 µM; in the assay on SNB-19 CNS, 54.6 µM.
As to `O=C1OS2(OC(=O)c3cccc4cccc2c34)c2ccccc21` (centres undefined), the TGI in the assay on DU-145 prostate, in the assay with MDA-MB-231 breast, in the assay on MDA-N, with NCI-H226 lung, with RXF 393 renal and in the assay on SF-295 CNS was greater than 100 µM in each case. Further, the TGI with SK-MEL-2 melanoma, in the assay with SK-MEL-28 melanoma and with SNB-19 CNS was greater than 100 µM throughout.
With `COc1cc(/C=C/C(=O)OC[C@]23O[C@H]2[C@@H](OC2OC(C)C(O)C(O)C2O)C2C=CO[C@@H](OC4OC(CO)C(O)C(O)C4O)C23)ccc1O` (some centres undefined), the TGI in the assay with DU-145 prostate, in the assay on MDA-MB-231 breast, in the assay with MDA-N, with NCI-H226 lung, with SF-295 CNS and in the assay with SK-MEL-2 melanoma was greater than 100 µM in each case. The TGI in the assay with SK-MEL-28 melanoma, with SK-OV-3 ovarian and with SNB-19 CNS was greater than 100 µM throughout.
As for `CC(=O)NC1=NC(=O)/C(=C/c2ccc(Cl)cc2Cl)N1C`, the total growth inhibition concentration (TGI) in the assay with DU-145 prostate is greater than 100 µM; with MDA-MB-231 breast, greater than 100 µM; in the assay on MDA-N, greater than 100 µM; with NCI-H226 lung it was 82.5 µM; in the assay with RXF 393 renal, greater than 100 µM; in the assay with SF-295 CNS it was greater than 100 µM. Further, the TGI with SK-MEL-2 melanoma, in the assay with SK-OV-3 ovarian and in the assay with SNB-19 CNS was greater than 100 µM throughout.
Take `CCCCOP(=O)(OCCCC)C(NS(=O)(=O)c1ccccc1)(C(=O)OCC)C(F)(F)F` (centres undefined): the TGI in the assay with DU-145 prostate is greater than 100 µM; in the assay on MDA-MB-231 breast, 36.7 µM; in the assay on MDA-N, greater than 100 µM; with NCI-H226 lung it was 74.9 µM; in the assay with RXF 393 renal it was 53 µM; in the assay with SF-295 CNS it was greater than 100 µM. Further, the TGI with SK-MEL-28 melanoma is 78.8 µM; with SK-OV-3 ovarian, greater than 100 µM; in the assay with SNB-19 CNS, greater than 100 µM.
As to `COc1cc(C(C)(C)C)c(OC(=O)/C=C/C(=O)O/C=C/[N+](=O)[O-])c(C(C)(C)C)c1`, the TGI in the assay with DU-145 prostate is greater than 100 µM; with MDA-MB-231 breast, 82.1 µM; in the assay on MDA-N, greater than 100 µM; with NCI-H226 lung it was greater than 100 µM; with RXF 393 renal, 81.7 µM; in the assay on SF-295 CNS it was greater than 100 µM. In addition, in the assay with SK-OV-3 ovarian, the TGI was greater than 100 µM.
`O=C1N2CCN=C2c2ccccc2C1(O)c1ccccc1` (centres undefined): the TGI in the assay with DU-145 prostate, in the assay on MDA-MB-231 breast, in the assay with MDA-N, in the assay with NCI-H226 lung, in the assay on SF-295 CNS and in the assay on SK-MEL-28 melanoma was greater than 100 µM in each case. Moreover, the total growth inhibition concentration (TGI) in the assay with SNB-19 CNS was greater than 100 µM.
For the compound `CCOC(=O)n1c2ccccc2c2c(O)c(OC)c3c(c21)C(=O)NC3=O`, the TGI in the assay on DU-145 prostate is greater than 100 µM; with MDA-MB-231 breast it was 56.4 µM; in the assay with MDA-N it was greater than 100 µM; in the assay on NCI-H226 lung, 76.3 µM; in the assay on SF-295 CNS, greater than 100 µM; in the assay on SK-MEL-2 melanoma it was greater than 100 µM. The TGI with SK-MEL-28 melanoma, in the assay on SK-OV-3 ovarian and with SNB-19 CNS was greater than 100 µM throughout.
With `COC(=O)c1ccc2c(c1)CC1(C2)Cc2ccc3c(c2C1)CCC3` (centres undefined), the TGI was greater than 100 µM with DU-145 prostate; 22.1 µM in the assay with MDA-MB-231 breast; 17.8 µM in the assay on MDA-N; greater than 100 µM in the assay with NCI-H226 lung; greater than 100 µM in the assay with RXF 393 renal; 66.4 µM in the assay with SF-295 CNS. Moreover, the TGI was greater than 100 µM with SK-MEL-28 melanoma, 51.8 µM in the assay on SK-OV-3 ovarian and greater than 100 µM in the assay on SNB-19 CNS.
On to `O=C1NC(N2CCOCC2)=N/C1=C\c1ccccc1`, for which the TGI with DU-145 prostate, in the assay with MDA-MB-231 breast, in the assay with MDA-N, in the assay on NCI-H226 lung, in the assay on SF-295 CNS and in the assay with SK-MEL-2 melanoma was greater than 100 µM in each case. For the same compound, the TGI in the assay with SK-MEL-28 melanoma, in the assay on SK-OV-3 ovarian and in the assay on SNB-19 CNS was greater than 100 µM each time.
For `Clc1ccc2nc3c(c(-c4ccccc4)nn3-c3ccccc3)c(-c3ccccc3)c2c1`, the TGI in the assay on DU-145 prostate, in the assay with MDA-MB-231 breast, with MDA-N, in the assay on NCI-H226 lung, in the assay on SF-295 CNS and in the assay on SK-MEL-2 melanoma was greater than 100 µM throughout. In addition, the TGI with SK-MEL-28 melanoma, with SK-OV-3 ovarian and in the assay on SNB-19 CNS was greater than 100 µM in each case.
As to `O=c1[nH]nc(Nc2ccccc2)c2nnn(Cc3ccccc3)c12`, the TGI with DU-145 prostate, with MDA-MB-231 breast, in the assay with MDA-N, in the assay on NCI-H226 lung, with RXF 393 renal and with SF-295 CNS was greater than 100 µM in each case. For the same compound, the TGI in the assay with SK-MEL-2 melanoma, in the assay with SK-MEL-28 melanoma and with SNB-19 CNS was greater than 100 µM each time.
Turning to `Cc1cc(S(=O)(=O)Nc2nc(N)n(-c3ccccc3)n2)c(S)cc1Cl`, the concentration for total growth inhibition (TGI) in the assay on DU-145 prostate, in the assay with MDA-MB-231 breast, with MDA-N, with NCI-H226 lung, in the assay on RXF 393 renal and in the assay on SK-MEL-2 melanoma was greater than 100 µM each time. For the same compound, the TGI in the assay on SK-MEL-28 melanoma, in the assay on SK-OV-3 ovarian and in the assay with SNB-19 CNS was greater than 100 µM each time.
